Test results from patent publication US20230000842A1, “METHODS OF TREATING CARTILAGE DISORDERS THROUGH INHIBITION OF CLK AND DYRK” (SAMUMED, LLC, priority 2019, published 2023).

Legend:
[1] = system: Wnt pathway activity (SW480 colon carcinoma cells stably expressing the Sp5-Luc reporter); assay: Wnt pathway activity screening assay (Sp5-Luc reporter gene assay); conditions: Homo sapiens, SW480, Table 4; SW480 cells stably expressing Sp5-Luc reporter, 10-point dose-response from 10 μM, 36 to 48 hours
[2] = molecular target: CLK2 kinase (Homo sapiens, UniProt P49760); assay: CLK2 kinase activity assay (Z-lyte FRET); type: biochemical; conditions: Z-lyte Ser/Thr 6 peptide, 60 μM ATP, 1 h at room temperature;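 note: FRET read-out as coumarin to fluorescein emission ratio, unphosphorylated peptide as 0% and phosphorylated peptide as 100% controls, duplicate reactions, non-linear regression fit of dose-response curves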
[3] = system: MMP-3 levels in supernatant of chondrocytes stimulated with IL1-β; assay: Chondrocyte protection assay compound screening (MMP-3 LANCE Ultra); type: cell-based, human; conditions: Homo sapiens, Chondrocyte, IL1-β 10 ng/mL overnight, 11-point curves from 3 μM to 0.05 nM; for Emax: read-out: Maximum % Inhibition
Protocol: Human Chondrocyte Cell Culture: Primary human chondrocytes were purchased from Lonza (Walkersville, Md.) and expanded in Chondrocyte Growth Media (CGM, Lonza). Cells between passage 2 and 5 were used for the experiments.
Chondrocytes were plated at 8,000 cells/well in 40 μL/well Chondrocyte Differentiation Medium (Lonza; 500 mL Basal Medium, 25 mL FBS, 0.5 mL GA-1000, 1 mL R3-IGF, 2.5 mL bFGF, 0.5 mL Transferrin, and 1 mL Insulin). After 2 hours of incubation at 37° C. and 5% CO2, IL1-β (Peprotech, Rocky Hill, N.J.) was added to a final concentration of 10 ng/mL. 11 wells in 1 row were left unstimulated for normalization and calculating EC50 values. Cells were incubated at 37° C. and 5% CO2 overnight. Assay plates are spun, 25 μl of supernatant media was collected using (S2 pipettor, Apricot Designs). Cells were lysed using 10 μL of (Cell Titer-Glo, Promega). Luminescent signal detected using an En Vision Multilabel reader (Perkin Elmer). MMP-3 levels were measured in supernatant. Supernatant diluted 1:7 in DMEM. MMP-3 levels in the supernatant were measured using MMP-3 LANCE Ultra detection kit (Perkin Elmer). Briefly, 5 μL of diluted supernatant was transferred to low-volume 384 well plates using (S2 pipettor, Apricot Designs). A standard curve was prepared using MMP-3 analyte (range […]). 1.7 μL of 8× mix of Eu-labelled anti-MMP-3 antibody and ULight labelled anti-MMP-3 antibody was added to the plates using Mantis Liquid handler (Formulatrix). Plates were incubated overnight at room temperature. LANCE signal was detected using an EnVision Multilabel reader (Perkin Elmer), equipped with TR-FRET using excitation wavelength of 320 nm and two emission wavelengths of 615 nm and 665 nm. Data was analyzed according to the kit protocol, using the ratio of […] and the standard curve values were used to calculate the amount of MMP3 in the […] (in pg/ml). The normalized averages (fold change over IL1-β stimulated) for each compound concentration were calculated. EC50 and maximum % inhibition values were calculated using the dose-response nonlinear regression curve-fit in Dotmatics.

[4] = system: primary human mesenchymal stem cells (hMSCs); assay: Chondrogenesis screening using primary human mesenchymal stem cells; type: cell-based; conditions: Homo sapiens, Mesenchymal stem cells, hMSC chondrogenesis; for Emax: maximum activity relative to TGF-β3 (10 ng/mL) positive control, read-out: Max. Activity as % TGF-β3 activity; for EC50: concentration required to induce 50% levels of chondrogenesis with TGF-β3 as positive control, read-out: Conc (nM) of 50% TGF-β3 activity
Outline: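 Derived values are EC50 for 50% chondrogenesis, maximal activity and the dose giving it. These come from nodule area in passage 3–6 primary hMSCs, expressed as fold change over the mean of 3 same-plate DMSO wells, 2–3 replicates per concentration. TGF-β3 served as positive control.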

[5] = molecular target: CLK3 kinase (Homo sapiens, UniProt P49761); assay: CLK3 kinase activity assay (Z-lyte FRET); type: biochemical; conditions: Z-lyte Ser/Thr 18 peptide, 156 μM ATP, 1 h at room temperature;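 note: kinase activity read as coumarin/fluorescein emission ratio by FRET, unphosphorylated peptide as 0% and phosphorylated peptide as 100% control, values from non-linear regression of dose-response curves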
CLK3 kinase, sequence (P49761 whole entry): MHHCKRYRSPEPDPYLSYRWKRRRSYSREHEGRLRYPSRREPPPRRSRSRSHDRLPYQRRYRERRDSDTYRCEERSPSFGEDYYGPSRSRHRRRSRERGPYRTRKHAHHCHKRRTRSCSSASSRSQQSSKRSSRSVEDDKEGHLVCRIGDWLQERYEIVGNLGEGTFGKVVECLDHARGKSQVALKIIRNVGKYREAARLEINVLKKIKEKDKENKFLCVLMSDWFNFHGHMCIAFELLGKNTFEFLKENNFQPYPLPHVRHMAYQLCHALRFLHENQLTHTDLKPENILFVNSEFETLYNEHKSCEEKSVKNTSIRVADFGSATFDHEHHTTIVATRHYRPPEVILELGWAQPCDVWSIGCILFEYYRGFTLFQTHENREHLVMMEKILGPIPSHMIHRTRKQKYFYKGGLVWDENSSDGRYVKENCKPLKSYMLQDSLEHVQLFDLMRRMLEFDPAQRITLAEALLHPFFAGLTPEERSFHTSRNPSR
Protocol: This is a non-radioactive assay using fluorescence resonance energy transfer (FRET) between coumarin and fluorescein to detect kinase activity which is represented as a ratio of coumarin emission/fluorescein emission.
The mixture was allowed to incubate with the representative compounds for one hour at room temperature. All reactions were performed in duplicate. Unphosphorylated (“0% Control”) and phosphorylated (“100% control”) forms of Ser/Thr 18 served as control reactions. Additionally, an 11-point dose-response curve of Staurosporine (1 μM top) was run to serve as a positive compound control.
After incubation, Development Reagent A was diluted in Development Buffer then added to the reaction and allowed to further incubate for one hour at room temperature.
Dose-response curves were generated and inhibitory concentration (IC50) values were calculated using non-linear regression curve fit in the Dotmatics' Studies Software (Bishops Stortford, UK).

CLK2 kinase, sequence (P49760 whole entry): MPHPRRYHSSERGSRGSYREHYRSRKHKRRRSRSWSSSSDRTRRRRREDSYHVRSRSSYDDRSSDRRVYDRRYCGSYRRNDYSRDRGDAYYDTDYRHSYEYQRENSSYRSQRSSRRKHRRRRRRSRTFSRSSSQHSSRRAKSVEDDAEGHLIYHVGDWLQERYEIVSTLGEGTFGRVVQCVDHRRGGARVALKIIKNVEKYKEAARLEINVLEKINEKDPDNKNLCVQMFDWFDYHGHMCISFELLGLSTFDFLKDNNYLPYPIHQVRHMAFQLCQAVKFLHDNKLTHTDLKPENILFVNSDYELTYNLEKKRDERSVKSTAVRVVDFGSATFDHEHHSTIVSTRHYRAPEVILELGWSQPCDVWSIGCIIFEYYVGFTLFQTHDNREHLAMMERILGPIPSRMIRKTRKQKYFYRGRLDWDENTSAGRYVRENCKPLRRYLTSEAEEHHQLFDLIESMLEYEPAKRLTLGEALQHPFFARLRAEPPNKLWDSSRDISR

Structure (SMILES)	EC50 [1] [nM]	EC50 [2] [nM]	EC50 [3] [nM]	Emax [3] [%]	Emax [4] [%]	EC50 [4] [nM]	EC50 [5] [nM]
O=C(Nc1c[nH]nc1C(=O)Nc1cncc(-c2cccc(F)c2)c1)c1cncc(F)c1 [compound 2]	479	72	0.4	58.2	81.5		
COc1cncc(C(=O)Nc2c[nH]nc2C(=O)Nc2ccc(N3CCC(F)(F)C3)nc2)c1 [compound 6]	5.7	15	2.2	42.1	124	300	
O=C(Nc1cccnc1)Nc1c[nH]nc1C(=O)Nc1ccc(C(F)(F)F)nc1 [compound 16]	679	95	8.7	99.5			
COc1cncc(C#Cc2c[nH]nc2C(=O)Nc2ccc(OC3CCN(C)CC3)nc2)c1 [compound 30]	3570	18	≥ 3000	3.4			
COc1cncc(C#Cc2c[nH]nc2C(=O)Nc2ccc(OCCN3CCCC3)nc2)c1 [compound 31]	1210	28	≥ 3000	2.4			
O=C(Nc1cccnc1)c1n[nH]cc1C#Cc1cncc(OC2CCNCC2)c1 [compound 32]	1270	38	0.2	77.8			
Cc1n[nH]c2ccc(-c3cncc(OC[C@@H](N)Cc4ccccc4)c3)cc12 [compound 35]	262		≥ 3000	99.3			
Cc1n[nH]c2cc(F)c(-c3cncc(OC4CCNC[C@@H]4F)n3)cc12 (stereo partly shown) [compound 46]	630		1050	100	43.8		
Cc1n[nH]c2ccc(-c3cncc(NC(CO)Cc4cccc(C(F)(F)F)c4)n3)cc12 (stereo not shown) [compound 51]	809		≥ 3000	48.1			
O=C(NC1C[C@@H]1c1ccccc1)c1n[nH]c2ccc(-c3cccnc3)cc12 (stereo partly shown) [compound 59]	1390		1.6	99.2			
O=C(NC1C[C@@H]1c1ccccc1)c1n[nH]c2ccc(-c3cncc(CN4CCCCC4)c3)cc12 (stereo partly shown) [compound 76]	1030		0.4	97.9			
CCNCc1cncc(-c2ccc3[nH]nc(-c4cc5c(-c6cc(F)cc(CNS(C)(=O)=O)c6)cncc5[nH]4)c3c2)c1 [compound 531]	> 10000	5			58		52
CCNCc1cncc(-c2cnc3[nH]nc(-c4cc5c(-c6cc(F)cc(CNS(C)(=O)=O)c6)nccc5[nH]4)c3c2)c1 [compound 532]	> 10000	3			61.2	300	305
CS(=O)(=O)NCc1cc(F)cc(-c2nccc3[nH]c(-c4n[nH]c5cnc(-c6cncc(CNCC7CCCC7)c6)cc45)cc23)c1 [compound 534]	> 10000	4			52.3	30	471
CS(=O)(=O)NCc1cc(F)cc(-c2cncc3[nH]c(-c4n[nH]c5ncc(-c6cncc(CN7CCCCC7)c6)cc45)cc23)c1 [compound 535]	1850	6			22.7		53
CS(=O)(=O)NCc1cc(F)cc(-c2nccc3[nH]c(-c4n[nH]c5ccc(-c6cncc(CN7CCCCC7)c6)nc45)cc23)c1 [compound 536]	1100	5			50.1	10	79
CS(=O)(=O)NCc1cc(F)cc(-c2nccc3[nH]c(-c4n[nH]c5ncc(-c6cncc(OCc7ccccc7)c6)cc45)cc23)c1 [compound 537]	3990	13			20.6		329

Structure (SMILES)	EC50 [1] [nM]	EC50 [2] [nM]	EC50 [3] [nM]	Emax [3] [%]	Emax [4] [%]	EC50 [4] [nM]	EC50 [5] [nM]
CS(=O)(=O)NCc1cc(F)cc(-c2cncc3[nH]c(-c4n[nH]c5ccc(-c6cncnc6)nc45)cc23)c1 [compound 538]	1030	2			106	10	58
CN1CCCCN(C)c2nccc3[nH]c(nc23)-c2n[nH]c3ccc(cc23)-c2cncc(c2)C1 [compound 617]	577	2			231	5000	12
c1cc2cc(c1)-c1cncc3[nH]c(nc13)-c1n[nH]c3ccc(cc13)-c1cncc(c1)CNC2 [compound 618]	41.8	2			558	200	12
Fc1cccc(-c2cncc3[nH]c(-c4n[nH]c5ccc(-c6cnccn6)nc45)nc23)c1 [compound 625]	> 10000	5	≥ 3000	70.9			
COc1cccc(-c2cncc3[nH]c(-c4n[nH]c5ccc(-c6cncc(NC(=O)C7CCCCC7)c6)nc45)nc23)c1 [compound 627]	> 10000	7	≥ 3000	90.7			
Fc1ccc(-c2cccc3[nH]c(-c4n[nH]c5ccc(-c6cncnc6)nc45)nc23)cc1 [compound 628]	> 10000	5	≥ 3000	54.3			
O=C(Nc1cncc(-c2ccc3[nH]nc(-c4nc5c(-c6cccc(F)c6)cccc5[nH]4)c3n2)c1)C1CC1 [compound 629]	1080	9	0.2	70			
O=C(Nc1cncc(-c2ccc3[nH]nc(-c4nc5c(-c6ccccn6)ccnc5[nH]4)c3n2)c1)c1ccccc1 [compound 630]	> 10000	8	5.1	67			
O=C(Nc1cncc(-c2ccc3[nH]nc(-c4nc5c(-c6cccs6)cccc5[nH]4)c3n2)c1)C1CC1 [compound 631]	3380	10	6.7	72			
COc1cncc(-c2ccc3[nH]nc(-c4nc5c(N6CCCCC6)ccnc5[nH]4)c3n2)c1 [compound 632]	> 10000	3	123	72.2			
Fc1ccc(-c2cccc3[nH]c(-c4n[nH]c5ncc(-c6cncc(CN7CCCCC7)c6)cc45)cc23)cc1 [compound 634]	3660	8	46.1	83.8			
CN(C)CCNc1cc(F)cc(-c2cccc3[nH]c(-c4n[nH]c5ncc(-c6ccncc6)cc45)cc23)c1 [compound 635]	6070	10	4	78.5			
O=C(Nc1cncc(-c2cc3c(-c4cc5c(-c6cccc(F)c6)ccnc5[nH]4)n[nH]c3cn2)c1)C1CC1 [compound 636]	97	9	298	64.5			
O=C(Nc1cc2cc(-c3cncs3)ccc2cn1)C1(F)CCCCC1 [compound 637]	> 10000	1900	≥ 3000	39.1			
CN1CCC(C(=O)Nc2cc3cc(-c4cnsc4)cnc3cn2)CC1 [compound 639]	> 10000		≥ 3000	43.7			
O=C(Nc1cc2cc(-c3cnco3)cnc2cn1)C1CCNCC1 [compound 641]	> 10000		35.8	48.4			
CC(F)(F)CN1CCC(C(=O)Nc2cc3cc(-c4cnco4)cnc3cn2)CC1 [compound 642]	> 10000	9780	≥ 3000	29.5			
